In patent US8975398B2, “NAMPT inhibitors” (AbbVie Inc., priority 2012, dated 2015):

Assays:
[1] = target: NAMPT (human, recombinant, C-terminally His-tagged) (Homo sapiens, UniProt P43490); assay: Time-Resolved Fluorescence Resonance Energy Transfer (TR-FRET) Binding Assay of NAMPT; conditions: 6.8 nM NAMPT, 200 nM probe, equilibrated 3 hours, absence of substrates
Outline: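 Probe displacement measured by TR-FRET (Ex 337 nm; 520/495 nm ratio) after 3 h room-temperature equilibration of compound with 6.8 nM His-tagged human NAMPT, 1 nM Tb-anti-His antibody and 200 nM Oregon Green 488 nicotinamide-site probe, pH 7.5 HEPES buffer, 2% DMSO. Control-normalized data fit four-parameter logistic for IC50.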

NAMPT = NAMPT (Homo sapiens, UniProt P43490); assay: Time-Resolved Fluorescence Resonance Energy Transfer (TR-FRET) Binding Assay of NAMPT with PRPP; conditions: 2 nM NAMPT, 2 nM probe, 200 uM PRPP and 2.5 mM ATP, equilibrated 16 hours
Outline: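 Binding measured by TR-FRET after a 16-hour equilibration meant to permit enzymatic compound modification. Substrates present at 200 uM PRPP and 2.5 mM ATP, with 2 nM enzyme, 2 nM probe, 1 nM Tb-anti-His antibody and 2% DMSO final.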

NAMPT (human, recombinant, C-terminally His-tagged), sequence (P43490 whole entry): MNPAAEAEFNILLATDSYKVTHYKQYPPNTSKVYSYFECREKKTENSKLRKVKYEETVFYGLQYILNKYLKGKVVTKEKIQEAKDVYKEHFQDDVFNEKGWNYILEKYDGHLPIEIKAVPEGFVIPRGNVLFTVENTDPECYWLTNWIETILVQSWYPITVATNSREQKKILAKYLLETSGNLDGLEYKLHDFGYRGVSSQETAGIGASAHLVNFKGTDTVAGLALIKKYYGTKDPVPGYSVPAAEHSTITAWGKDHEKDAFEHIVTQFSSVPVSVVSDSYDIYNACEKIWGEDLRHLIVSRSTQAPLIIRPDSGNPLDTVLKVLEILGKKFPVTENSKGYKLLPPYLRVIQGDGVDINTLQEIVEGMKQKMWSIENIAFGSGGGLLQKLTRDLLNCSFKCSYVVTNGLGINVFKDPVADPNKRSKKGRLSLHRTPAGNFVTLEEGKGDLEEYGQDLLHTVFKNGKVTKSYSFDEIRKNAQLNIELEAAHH
NAMPT, sequence (P43490 whole entry): as above

Structure (SMILES)	IC50 [1] [nM]	IC50 (NAMPT) [nM]
CCCCC(=O)N1CCC(c2ccc(NC(=O)C3CN(c4cccnc4C)C3)cc2)CC1 [Example 159, 1-(2-methylpyridin-3-yl)-N-[4-(1-pentanoylpiperidin-4-yl)phenyl]azetidine-3-carboxamide]	137	61.2
COCC(=O)N1CCC(c2ccc(NC(=O)C3CN(c4cccnc4)C3)cc2)CC1 [Example 135, N-{4-[1-(methoxyacetyl)piperidin-4-yl]phenyl}-1-(pyridin-3-yl)azetidine-3-carboxamide]	33.9	0.293
CC(C)(C)CC(=O)N1CCC(Oc2ccc(NC(=O)C3CN(c4ccnnc4)C3)cc2)CC1 [Example 260, N-(4-{[1-(3,3-dimethylbutanoyl)piperidin-4-yl]oxy}phenyl)-1-(pyridazin-4-yl)azetidine-3-carboxamide]	75.4	19
CC(=O)N1CCC(Oc2ccc(NC(=O)C3CN(c4cccnn4)C3)cc2)CC1 [Example 244, -{4-[(1-acetylpiperidin-4-yl)oxy]phenyl}-1-(pyridazin-3-yl)azetidine-3-carboxamide]	449	0.916
C=CCC(=O)N1CCC(c2ccc(NC(=O)C3CN(c4cccnn4)C3)cc2)CC1 [Example 330, N-{4-[1-(but-3-enoyl)piperidin-4-yl]phenyl}-1-(pyridazin-3-yl)azetidine-3-carboxamide]	31.7	0.887
O=C(Nc1ccc(C2CCN(C(=O)c3ccsc3)CC2)cc1)C1CN(c2cccnc2)C1 [Example 109, 1-(pyridin-3-yl)-N-{4-[1-(thiophen-3-ylcarbonyl)piperidin-4-yl]phenyl}azetidine-3-carboxamide]	5.03	0.398
CCOCCC(=O)N1CCC(c2ccc(NC(=O)C3CN(c4cccnc4C)C3)cc2)CC1 [Example 175, N-{4-[1-(3-ethoxypropanoyl)piperidin-4-yl]phenyl}-1-(2-methylpyridin-3-yl)azetidine-3-carboxamide]	664	161
CCC(C)C(=O)N1CCC(c2ccc(NC(=O)C3CN(c4cccnn4)C3)cc2)CC1 (stereo not shown) [Example 319, N-{4-[1-(2-methylbutanoyl)piperidin-4-yl]phenyl}-1-(pyridazin-3-yl)azetidine-3-carboxamide]	24.9	0.747
N#Cc1ccc(C(=O)N2CCC(c3ccc(NC(=O)C4CN(c5cccnn5)C4)cc3)CC2)cc1 [Example 353, N-{4-[1-(4-cyanobenzoyl)piperidin-4-yl]phenyl}-1-(pyridazin-3-yl)azetidine-3-carboxamide]	88.2	0.472
COCCOCC(=O)N1CCC(c2ccc(NC(=O)C3CN(c4cccnn4)C3)cc2)CC1 [Example 335, N-(4-{1-[(2-methoxyethoxy)acetyl]piperidin-4-yl}phenyl)-1-(pyridazin-3-yl)azetidine-3-carboxamide]	210	1.02
O=C(Nc1ccc(C2CCN(C(=O)c3ccccc3O)CC2)cc1)C1CN(c2cccnn2)C1 [Example 342, N-{4-[1-(2-hydroxybenzoyl)piperidin-4-yl]phenyl}-1-(pyridazin-3-yl)azetidine-3-carboxamide]	13.1	0.698
O=C(Nc1ccc(OC2CCN(C(=O)c3cccc(F)c3)CC2)cc1)C1CN(c2cccnn2)C1 [Example 231, N-(4-{[1-(3-fluorobenzoyl)piperidin-4-yl]oxy}phenyl)-1-(pyridazin-3-yl)azetidine-3-carboxamide]	174	0.831
O=C(Nc1ccc(OC2CCN(C(=O)c3cccs3)CC2)cc1)C1CN(c2ccnnc2)C1 [Example 303, 1-(pyridazin-4-yl)-N-(4-{[1-(thiophen-2-ylcarbonyl)piperidin-4-yl]oxy}phenyl)azetidine-3-carboxamide]	30.9	15.5
Cc1ncccc1N1CC(C(=O)Nc2ccc(C3CCN(C(=O)c4cccn4C)CC3)cc2)C1 [Example 188, 1-(2-methylpyridin-3-yl)-N-(4-{1-[(1-methyl-1H-pyrrol-2-yl)carbonyl]piperidin-4-yl}phenyl)azetidine-3-carboxamide]	20.5	49.9
CC1(C(=O)N2CCC(c3ccc(NC(=O)C4CN(c5cccnn5)C4)cc3)CC2)CC1 [Example 379, N-(4-{1-[(1-methylcyclopropyl)carbonyl]piperidin-4-yl}phenyl)-1-(pyridazin-3-yl)azetidine-3-carboxamide]	15.9	0.432
CC1CC1C(=O)N1CCC(c2ccc(NC(=O)C3CN(c4cccnc4)C3)cc2)CC1 (stereo not shown) [Example 102, N-(4-{1-[(2-methylcyclopropyl)carbonyl]piperidin-4-yl}phenyl)-1-(pyridin-3-yl)azetidine-3-carboxamide]	8.84	0.21
Cc1ncccc1N1CC(C(=O)Nc2ccc(C3CCN(C(=O)[C@@H]4CCC(=O)N4)CC3)cc2)C1 [Example 174, 1-(2-methylpyridin-3-yl)-N-{4-[1-(5-oxo-L-prolyl)piperidin-4-yl]phenyl}azetidine-3-carboxamide]	2100	158
CCC(C)CC(=O)N1CCC(Oc2ccc(NC(=O)C3CN(c4cccnc4)C3)cc2)CC1 (stereo not shown) [Example 38, N-(4-{[1-(3-methylpentanoyl)piperidin-4-yl]oxy}phenyl)-1-(pyridin-3-yl)azetidine-3-carboxamide]	46.5	0.9
CC(=O)N1CCC(Oc2ccc(NC(=O)C3CN(c4cccnc4)C3)cc2)CC1 [Example 56, N-{4-[(1-acetylpiperidin-4-yl)oxy]phenyl}-1-(pyridin-3-yl)azetidine-3-carboxamide]	360	0.812

The next lines start with the values.

IC50 [1] [nM]	IC50 (NAMPT) [nM]	Structure (SMILES)
17	31.1	CC[C@H](C)C(=O)N1CCC(c2ccc(NC(=O)C3CN(c4ccnnc4)C3)cc2)CC1 [Example 143, N-(4-{1-[(2S)-2-methylbutanoyl]piperidin-4-yl}phenyl)-1-(pyridazin-4-yl)azetidine-3-carboxamide]
8.36	0.61	Cn1cccc1C(=O)N1CCC(c2ccc(NC(=O)C3CN(c4cccnc4)C3)cc2)CC1 [Example 128, N-(4-{1-[(1-methyl-1H-pyrrol-2-yl)carbonyl]piperidin-4-yl}phenyl)-1-(pyridin-3-yl)azetidine-3-carboxamide]
80.6	0.569	O=C(Nc1ccc(OC2CCN(C(=O)c3nccs3)CC2)cc1)C1CN(c2cccnc2)C1 [Example 68, 1-(pyridin-3-yl)-N-(4-{[1-(1,3-thiazol-2-ylcarbonyl)piperidin-4-yl]oxy}phenyl)azetidine-3-carboxamide]
61.7	28.9	O=C(Nc1ccc(OC2CN(C(=O)c3ccoc3)C2)cc1)C1CN(c2ccnnc2)C1 [Example 209, N-(4-{[1-(furan-3-ylcarbonyl)azetidin-3-yl]oxy}phenyl)-1-(pyridazin-4-yl)azetidine-3-carboxamide]
32.2	17	CC(C)(O)C(=O)N1CCC(c2ccc(NC(=O)C3CN(c4ccnnc4)C3)cc2)CC1 [Example 85, N-{4-[1-(2-hydroxy-2-methylpropanoyl)piperidin-4-yl]phenyl}-1-(pyridazin-4-yl)azetidine-3-carboxamide]
35.2	68.3	Cc1ncccc1N1CC(C(=O)Nc2ccc(C3CCN(C(=O)c4ccoc4)CC3)cc2)C1 [Example 165, N-{4-[1-(furan-3-ylcarbonyl)piperidin-4-yl]phenyl}-1-(2-methylpyridin-3-yl)azetidine-3-carboxamide]
4.49	0.367	O=C(Nc1ccc(C2CCN(C(=O)c3ccco3)CC2)cc1)C1CN(c2cccnc2)C1 [Example 129, N-{4-[1-(furan-2-ylcarbonyl)piperidin-4-yl]phenyl}-1-(pyridin-3-yl)azetidine-3-carboxamide]
10.4	0.798	O=C(Nc1ccc(C2CCN(C(=O)c3cc(Cl)ccc3Cl)CC2)cc1)C1CN(c2cccnn2)C1 [Example 363, N-{4-[1-(2,5-dichlorobenzoyl)piperidin-4-yl]phenyl}-1-(pyridazin-3-yl)azetidine-3-carboxamide]
6.74	0.296	CC(C)(O)C(=O)N1CCC(c2ccc(NC(=O)C3CN(c4cccnc4)C3)cc2)CC1 [Example 20, N-{4-[1-(2-hydroxy-2-methylpropanoyl)piperidin-4-yl]phenyl}-1-(pyridin-3-yl)azetidine-3-carboxamide]
91.1	38.4	O=C(Nc1ccc(OC2CN(C(=O)CC3CCOCC3)C2)cc1)C1CN(c2ccnnc2)C1 [Example 256, 1-(pyridazin-4-yl)-N-(4-{[1-(tetrahydro-2H-pyran-4-ylacetyl)azetidin-3-yl]oxy}phenyl)azetidine-3-carboxamide]
65.9	109	O=C(Nc1ccc(C2CCN(C(=O)C3CCOCC3)CC2)cc1)C1CN(c2ccnnc2)C1 [Example 146, 1-(pyridazin-4-yl)-N-{4-[1-(tetrahydro-2H-pyran-4-ylcarbonyl)piperidin-4-yl]phenyl}azetidine-3-carboxamide]
65.6	0.282	COCCOCC(=O)N1CCC(c2ccc(NC(=O)C3CN(c4cccnc4)C3)cc2)CC1 [Example 123, N-(4-{1-[(2-methoxyethoxy)acetyl]piperidin-4-yl}phenyl)-1-(pyridin-3-yl)azetidine-3-carboxamide]
104	84.7	O=C(Nc1ccc(OC2CCN(C(=O)CC3CCOCC3)CC2)cc1)C1CN(c2cnccc2C(F)(F)F)C1 [Example 7, N-(4-{[1-(tetrahydro-2H-pyran-4-ylacetyl)piperidin-4-yl]oxy}phenyl)-1-[4-(trifluoromethyl)pyridin-3-yl]azetidine-3-carboxamide]
